Experimental data reported in patent US20240067600A1, “SMALL MOLECULE INHIBITORS OF THE MITOCHONDRIAL PERMEABILITY TRANSITION PORE (mtPTP)” (UNIVERSITY OF KANSAS, priority 2014, published 2024).
Like-named read-outs stand apart in the source and are kept apart here.

How the values were obtained:
Type in all cases: biochemical, mice
[1] = system: IMM potential; experiment: Rhodamine 123 (Rh123) uptake counterscreen;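 further: isolated mitochondria respiring on glutamate plus malate in sucrose MOPS-Tris buffer at pH 7.4, Rh123 added with the organelles, compounds tested across a twofold dilution series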
[2] = system: Mitochondrial Permeability Transition Pore; experiment: Mitochondrial swelling absorbance assay
Description: Mitochondrial Swelling (Hit Validation, Confirmatory Assay, Concentration-Response, AID No. 720722)
Assay buffer: 250 mM sucrose, 10 mM MOPS-Tris, 0.01 mM EGTA-Tris, 1.0 mM phosphoric acid-Tris, pH 7.4 • Solution 1. 5.0 mM glutamate and 2.5 mM malate in Assay buffer. • Solution 2. 80-120 μM CaCl2) depending on mitochondrial activity in Solution 1. Note: Concentration of Ca^2+ in the assay is dependent upon the activity of the isolated mitochondria which is determined via a calcium titration just before each screening batch. A Ca^2+ concentration is used that allows for the arrival at a 2:1 window at the 20 minute time period. • Solution 3. 1% DMSO in Solution 2. • Solution 4. 2.0 mM EGTA-Tris, pH 7.4 in Solution 3. • Solution 5. 0.5 mg/mL mitochondria in Assay Buffer.
Protocol Summary: • 1. Freshly isolate mitochondria, prepare solutions according to the recipes in the reagent section • 2. Dispense 100 μL of Solution 4 to Columns 1-2 and Solution 3 Columns 11-12 (positive and negative controls, respectively) of the 96-well clear assay plate (Falcon 353072) • 3. Dispense 200 μL of Solution 1 to Row A Columns 3-10. • 4. Next, dispense 100 μL of Solution 3 to Rows B-H Columns 3-10. • 5. Add 4 μL of 5 mM test compounds in DMSO to Row A Columns 3-10, perform 1:2 serial dilutions Row A to H Columns 3-10. • 6. Finally, dispense 100 μL of Solution 5 in all wells. The reaction starts. • 7. Keep the plate at room temperature for 20 minutes and then read absorbance at 540 nm on MultiSkan EX, Thermo Scientific.
Concentration-Response Assay to Identify Compounds that Inhibit Mitochondrial Swelling (SAR Assay AID No. 743359)
Assay buffer: 250 mM sucrose, 10 mM MOPS-Tris, 0.01 mM EGTA-Tris, 1.0 mM phosphoric acid, pH 7.4 • Solution 1. 5.0 mM glutamate and 2.5 mM malate in Assay Buffer. • Solution 2. 100-120 μM CaCl2) depending on mitochondrial activity in Solution 1. Note: Concentration of Ca^2+ in the assay is dependent upon the activity of the isolated mitochondria which is determined via a calcium titration just before each screening batch. A Ca^2+ concentration is used that allows for the arrival at a 2:1 window at the 20 minute time period. • Solution 3. 1% DMSO in Solution 2. • Solution 4. 2.0 mM EGTA-Tris, pH 7.4 in Solution 3. • Solution 5. 0.5 mg/mL mitochondria in Assay Buffer.
Protocol Summary: • 1. Freshly isolate mitochondria, prepare solutions according to the recipes in the Reagent Section. • 2. Dispense 100 μL of Solution 4 to Columns 1-2 and Solution 3 Columns 11-12 (positive and negative controls, respectively) of the 96-well clear assay plate (Falcon 353072). • 3. Dispense 200 μL of Solution 1 to Row A Columns 3-10. • 4. Next, dispense 100 μL of Solution 3 to Rows B-H Columns 3-10. • 5. Add 4 μL of 5 mM test compounds in DMSO to Row A Columns 3-10, perform 1:2 serial dilutions Row A to H Columns 3-10. • 6. Finally, dispense 100 μL of Solution 5 in all wells. The reaction starts. • 7. Keep the plate at room temperature for 20 minutes and then read absorbance at 540 nm on MultiSkan EX, Thermo Scientific.

[3] = system: mtPTP; experiment: Calcium retention capacity (CRC) assay on isolated mitochondria; settings: for Calcium Retention Capacity (CRC/CRC0 at 12.5 μM): 12.5 μM compound; for Calcium Retention Capacity (CRC/CRC0) at 1.56 μM: 1.56 μM compound
[4] = Table 1, read-out: Rh123 uptake (EC50)
[5] = Table 2, average of >3 experiments ± SEM, read-out: Rh123 Assay EC50
[6] = Table 2, average of >3 experiments ± SEM

CN1CCN(Cc2ccc(NS(=O)(=O)c3cc(Cl)cc(Cl)c3)cc2)CC1
EC50 [1, 4]: > 100 µM
EC50 ([2]; Table 1, average ± SEM): 29.2 ± 2.1 µM
Calcium Retention Capacity (CRC/CRC0 at 12.5 μM) ([3]; Table 1, average ± SEM): 1.10 ± 0.02

C[C@@H]1CCC[C@H](C)N1CCCC(=O)c1ccc(Br)cc1
EC50 [1, 4]: > 100 µM
EC50 ([2]; Table 1, average ± SEM): 46 ± 1.36 µM
Calcium Retention Capacity (CRC/CRC0 at 12.5 μM) ([3]; Table 1, average ± SEM): 1.01 ± 0.02

O=S(=O)(Nc1ccc(CCN2CCCCC2)cc1)c1ccc(F)c(Cl)c1
EC50 [1, 4]: > 100 µM
EC50 ([2]; Table 1, average ± SEM): 29.1 ± 2.92 µM
Calcium Retention Capacity (CRC/CRC0 at 12.5 μM) ([3]; Table 1, average ± SEM): 1.07 ± 0.03

O=C(Nc1ccc(CN2CCCCC2)cc1)c1ccc(Cl)c(OCc2ccc(Cl)cc2)c1 [Entry 10]
EC50 [1, 5]: 24.7 ± 1.5 µM
EC50 [2, 6]: 1.24 ± 0.39 µM
Calcium Retention Capacity (CRC/CRC0 at 12.5 μM) [3, 6]: 5.91 ± 0.38

Cc1ccccc1NC(=O)c1cc(-c2cccc(O)c2)on1
EC50 [1, 4]: > 100 µM
EC50 ([2]; Table 1, average ± SEM): 0.03 ± 0.0022 µM
Calcium Retention Capacity (CRC/CRC0 at 12.5 μM) ([3]; Table 1, average ± SEM): 8.16 ± 0.92

COc1ccc(-c2cc(C(=O)Nc3cc(Cl)cc(Cl)c3)no2)cc1O [drawing 126]
EC50 [1, 4]: > 100 µM
EC50 ([2]; Table 1, average ± SEM): 0.277 ± 0.001 µM
Calcium Retention Capacity (CRC/CRC0) at 1.56 μM ([3]; Table 1, average ± SEM): 1.17 ± 0.11 (at 1.56 μM)

O=C(Nc1ccc(CN2CCCCC2)cc1)c1ccc(Cl)c(OCc2cccc(Cl)c2)c1 [Entry 8]
EC50 [1, 5]: 23.2 ± 1.3 µM
EC50 [2, 6]: 1.19 ± 0.33 µM
Calcium Retention Capacity (CRC/CRC0 at 12.5 μM) [3, 6]: 6.50 ± 1.20

O=C(Nc1ccc(CN2CCCCC2)cc1)c1ccc(Cl)c(OCc2ccccc2Cl)c1 [Entry 9]
EC50 [1, 5]: > 100 µM
EC50 [2, 6]: 4 ± 0.66 µM
Calcium Retention Capacity (CRC/CRC0 at 12.5 μM) [3, 6]: 2.37 ± 0.41

COc1ccc(Cl)cc1NC(=O)c1cc(-c2cccc(O)c2)on1
EC50 [1, 4]: > 100 µM
EC50 ([2]; Table 1, average ± SEM): 0.06 ± 0.0076 µM
Calcium Retention Capacity (CRC/CRC0) at 1.56 μM ([3]; Table 1, average ± SEM): 6.95 ± 1.15
Calcium Retention Capacity (CRC/CRC0 at 12.5 μM) ([3]; Table 1, average ± SEM): 10.89 ± 1.34

Cc1ccc(Cl)cc1NC(=O)c1cc(-c2ccccc2O)on1
EC50 [1, 4]: > 100 µM
EC50 ([2]; Table 1, average ± SEM): 6.06 ± 0.748 µM
Calcium Retention Capacity (CRC/CRC0 at 12.5 μM) ([3]; Table 1, average ± SEM): 2.10 ± 0.26

CN(C)c1ccc(Cl)cc1NC(=O)c1cc(-c2cccc(O)c2)on1
EC50 [1, 4]: > 100 µM
EC50 ([2]; Table 1, average ± SEM): 1.61 ± 0.866 µM
Calcium Retention Capacity (CRC/CRC0 at 12.5 μM) ([3]; Table 1, average ± SEM): 2.22 ± 0.38

O=C(Nc1cc(Cl)ccc1F)c1cc(-c2ccc(F)c(O)c2)on1
EC50 [1, 4]: > 100 µM
EC50 ([2]; Table 1, average ± SEM): 0.009 ± 0.0014 µM
Calcium Retention Capacity (CRC/CRC0 at 12.5 μM) ([3]; Table 1, average ± SEM): 10.07 ± 0.69

CN1CCN(Cc2ccc(NC(=O)c3ccc(Cl)c(OCc4ccccc4)c3)cc2)CC1 [Entry 5]
EC50 [1, 5]: 49.6 ± 4.3 µM
EC50 [2, 6]: 0.423 ± 0.028 µM
Calcium Retention Capacity (CRC/CRC0 at 12.5 μM) [3, 6]: 14.1 ± 1.1

Cc1ccc(Cl)cc1NC(=O)c1cc(-c2ccc(Cl)c(O)c2)on1
EC50 [1, 4]: > 100 µM
EC50 ([2]; Table 1, average ± SEM): 0.00216 ± 0.00045 µM
Calcium Retention Capacity (CRC/CRC0) at 1.56 μM ([3]; Table 1, average ± SEM): 6.21 ± 0.66 (at 1.56 μM)

COc1ccc(NC(=O)c2cc(-c3cccc(O)c3)on2)cc1Cl
EC50 [1, 4]: > 100 µM
EC50 ([2]; Table 1, average ± SEM): 0.189 ± 0.028 µM
Calcium Retention Capacity (CRC/CRC0 at 12.5 μM) ([3]; Table 1, average ± SEM): 3.26 ± 0.32

O=C(Nc1cc(Cl)ccc1F)c1cc(-c2cccc(O)c2)on1
EC50 [1, 4]: > 100 µM
EC50 ([2]; Table 1, average ± SEM): 0.172 ± 0.014 µM
Calcium Retention Capacity (CRC/CRC0) at 1.56 μM ([3]; Table 1, average ± SEM): 3.77 ± 0.17 (at 1.56 μM)

COc1ccc(Cl)cc1C(=O)Nc1ccc(CCN2CCNCC2)cc1 [drawing 154]
EC50 [1, 4]: > 100 µM
EC50 ([2]; Table 1, average ± SEM): 7.25 ± 0.526 µM
Calcium Retention Capacity (CRC/CRC0 at 12.5 μM) ([3]; Table 1, average ± SEM): 1.31 ± 0.03

O=C(Nc1cccc(Cl)c1Cl)c1cc(-c2cccc(O)c2)on1
EC50 [1, 4]: > 100 µM
EC50 ([2]; Table 1, average ± SEM): 12.5 ± 0.667 µM
Calcium Retention Capacity (CRC/CRC0 at 12.5 μM) ([3]; Table 1, average ± SEM): 4.00 ± 0.42

COc1ccc(-c2cc(C(=O)Nc3cc(Cl)ccc3Cl)no2)cc1O
EC50 [1, 4]: > 100 µM
EC50 ([2]; Table 1, average ± SEM): 0.146 ± 0.0115 µM
Calcium Retention Capacity (CRC/CRC0) at 1.56 μM ([3]; Table 1, average ± SEM): 4.34 ± 0.53
Calcium Retention Capacity (CRC/CRC0 at 12.5 μM) ([3]; Table 1, average ± SEM): 9.59 ± 1.29

Cc1ccc(Cl)cc1NC(=O)c1cc(-c2cccc(O)c2)on1
EC50 [1, 4]: > 100 µM
EC50 ([2]; Table 1, average ± SEM): 0.0035 ± 0.0007 µM
Calcium Retention Capacity (CRC/CRC0) at 1.56 μM ([3]; Table 1, average ± SEM): 9.63 ± 0.29
Calcium Retention Capacity (CRC/CRC0 at 12.5 μM) ([3]; Table 1, average ± SEM): 14.99 ± 1.20

COc1ccc(/C=C/C(=O)Nc2cccc(Cl)c2)cc1O [Entry 13]
EC50 [1, 5]: > 100 µM
EC50 [2, 6]: 0.073 ± 0.007 µM
Calcium Retention Capacity (CRC/CRC0 at 12.5 μM) [3, 6]: 7.67 ± 0.35

O=C(Nc1cccc(Cl)c1)c1cc(-c2ccc(O)cc2)on1
EC50 [1, 4]: > 100 µM
EC50 ([2]; Table 1, average ± SEM): 2.21 ± 0.174 µM
Calcium Retention Capacity (CRC/CRC0 at 12.5 μM) ([3]; Table 1, average ± SEM): 3.50 ± 0.57
